Laboratory results published in patent US20220218664A1, “DRUG AND METHOD FOR TREATING OR PREVENTING COMPLICATIONS FROM DIABETES, USING SAID DRUG” (TMS Co., Ltd., priority 2019, published 2022).
Values joined by “and” are separate entries in the source; they are usually repeats but may differ in a detail not shown here. Identical values can stand only once.

Assays:
[1] = Body weight (BW) in streptozotocin-induced diabetic mice; format: in vivo, C57BL/6J male mice; settings: 30 mg/kg i.p. once a day
Experimental: (§1) 9-week-old C57BL/6J male mice were purchased and familiarized with an animal facility for 1 week. 200 mg/kg of streptozotocin (streptozotocin; STZ) was administered […] into the peritoneal cavity of 10-week-old mice to prepare streptozotocin-induced diabetic mice (hereinafter also referred to as “STZ administration week 0”). One week after the administration of streptozotocin, blood was collected from the tail vein of the mice, and the blood glucose level (BS) was measured using an automatic blood glucose measuring device (product name: Medisafe (trademark) Mini GR-102, made by Terumo (Co)). Mice having a blood glucose level of 400 mg/dL or more were determined to be diabetic mice.
(§2) The SMTP-44D groups, the edaravone group, and the pregabalin group were administered SMTP-44D (0.3 mg/kg, 3 mg/kg, or 30 mg/kg doses, respectively), edaravone (10 mg/kg dose), or pregabalin (10 mg/kg dose) into the peritoneal cavity once a day for 3 consecutive weeks from the day following the first week to the fourth week after STZ administration.
For the above-mentioned STZ group, SMTP-44D groups, edaravone group, pregabalin group, and control group mice, the following measurements were conducted every week from the 0th week, which began on the day when streptozotocin (STZ) was administered, to the 4th week (that is, a total of five times). As algesia tests, the following von Frey test and hot plate test were conducted, and hind plantar blood flow, body weight (BW), and blood glucose level (BS) were measured using the above-mentioned automatic blood glucose measure device. Note, for example, the 0th week represents the 0th day. That is, the measurements were conducted on the 0th, 7th, 14th, 21st, and 28th days.

[2] = tested on: streptozotocin-induced diabetic mice; assay: Von Frey test: evaluating mechanical stimulus; format: in vivo, C57BL/6J male mice
Experimental: as §1, §2
The above-mentioned STZ group, SMTP-44D groups, edaravone group, pregabalin group, and control group mice were put in grid-like boxes, respectively, and were familiarized for one hour. After the familiarization, by using a Dynamic Plantar Aesthesiometer (tactometer) (manufactured by UGO BASILE Inc.), 1 g/s (that, pressurization increased by 1 g per second) of stimulation was imparted to the hind legs of these mice to measure mechanical thresholds (g) from the start of stimulation to the time when the mice withdrew their legs. The measurements were conducted for both hind legs three times at intervals of three minutes or longer, respectively. A mean value of three mechanical thresholds (g) was calculated for 1 mouse, and then a mean value of the 12 mice for the respective groups was found.

[3] = tested on: streptozotocin-induced diabetic mice; assay: Hot plate test: evaluating thermal stimulus; format: in vivo, C57BL/6J male mice
Experimental: as §1, §2
The above-mentioned STZ group, SMTP-44D groups, edaravone group, pregabalin group, and control group mice were put in grid-like boxes, respectively, and were left for 30 minutes. After having been left, an acrylic disc (diameter: 20 cm; height (that is, thickness of the acrylic disc): […]) was placed on an EC hot plate (model number: EC1200) maintained at 49 to 50° C., and the mice were put on the acrylic disc. The measurements were started after the mice landed on the EC hot plate. The times from the mice landing to their action to jump or lick their hind legs were evaluated as thermal thresholds (seconds: s). Note, to avoid burns on their plantae, the measurements were ceased 30 seconds after beginning. The measurements were conducted three times at 30-minute intervals. A mean value of three thermal thresholds (seconds: s) was calculated for 1 mouse, and then a mean value of the 12 mice for the respective groups was found.

[4] = tested on: streptozotocin-induced diabetic mice; assay: Hind plantar blood flow (laser perfusion imager); format: in vivo, C57BL/6J male mice
Experimental: as §1, §2
The hind plantar blood flows (perfusion unit: PU) of the above-mentioned STZ group, SMTP-44D groups, edaravone group, pregabalin group, and control group mice were measured under isoflurane anesthesia using a full-field laser perfusion imager.

TNF-α = assay: Inflammatory cytokine TNF-α in sciatic nerve (ELISA); format: in vivo, C57BL/6J male mice; settings: 30 mg/kg i.p. once a day, 4th week
Experimental: as §1, §2
(§3) The sciatic nerves of the above-mentioned STZ group, SMTP-44D group (30 mg/kg), edaravone group, pregabalin group, and control group mice on the 4th week were homogenized using the RIPA buffer containing a protease inhibitor cocktail. Moreover, centrifugation was conducted at 4° C. for 15 minutes at 10,000 g, and the supernatant was collected and used for measuring TNF-α concentration (pg/mL), IL-1β concentration (pg/mL), IL-6 concentration (pg/mL), and total protein concentration (μg/mL), respectively. An ELISA assay kit was used for the TNF-α, IL-1β, and IL-6 concentrations. The total protein concentration was measured by using a Pierce (trademark) BCA Protein Assay Kit. The inflammatory cytokine level (pg/mg protein) in the total protein was calculated from the TNF-α concentration (pg/mL), IL-1β concentration (pg/mL), and IL-6 concentration (pg/mL), and total protein concentration (μg/mL).

IL-1β = assay: Inflammatory cytokine IL-1β in sciatic nerve (ELISA); format: in vivo, C57BL/6J male mice; settings: 30 mg/kg i.p. once a day, 4th week
Experimental: as §1, §2, §3

[5] = tested on: diabetic nephropathy model mice; assay: Blood glucose level in diabetic nephropathy model mice; format: in vivo, Male db/db mice; settings: 30 mg/kg i.p. once every two days for 10 weeks; 16 weeks old
[6] = tested on: diabetic nephropathy model mice; assay: Urinary albumin; settings: 30 mg/kg i.p. once every two days for 10 weeks; 16 weeks old
[7] = tested on: diabetic nephropathy model mice; assay: Serum creatinine; settings: 30 mg/kg i.p. once every two days for 10 weeks; 16 weeks old
[8] = 0.3 mg/kg i.p. once a day, 0th week (before dosing)
[9] = 0.3 mg/kg i.p. once a day, 1st week (before dosing)
[10] = 0.3 mg/kg i.p. once a day, 2nd week
[11] = 0.3 mg/kg i.p. once a day, 3rd week
[12] = 0.3 mg/kg i.p. once a day, 4th week
[13] = 3 mg/kg i.p. once a day, 0th week (before dosing)
[14] = 3 mg/kg i.p. once a day, 1st week (before dosing)
[15] = 3 mg/kg i.p. once a day, 2nd week
[16] = 3 mg/kg i.p. once a day, 3rd week
[17] = 3 mg/kg i.p. once a day, 4th week
[18] = 30 mg/kg i.p. once a day, 0th week (before dosing)
[19] = 30 mg/kg i.p. once a day, 1st week (before dosing)
[20] = 30 mg/kg i.p. once a day, 2nd week
[21] = 30 mg/kg i.p. once a day, 3rd week
[22] = 30 mg/kg i.p. once a day, 4th week

CC(C)=CCCC(C)=CCCC1(C)Oc2c(c(O)cc3c2CN(C(C(=O)O)c2ccc(O)cc2)C3=O)CC1O (stereo not shown) [SMTP-44D]
Body weight decrease between the 0th week and 4th week [1]: 1.5 g | BW (body weight) ([1]; 0th week (before dosing)): 23.0 ± 0.4 g | BW (body weight) ([1]; 1st week (before dosing)): 21.7 ± 0.5 g | BW (body weight) ([1]; 3rd week): 21.3 ± 0.6 g | BW (body weight) ([1]; 4th week): 21.5 ± 0.5 g | von Frey test mechanical threshold [2, 8]: 5.2 ± 0.1 g | von Frey test mechanical threshold [2, 9]: 4.1 ± 0.1 g | von Frey test mechanical threshold [2, 10]: 3.5 ± 0.2 g | von Frey test mechanical threshold [2, 11]: 3.7 ± 0.1 g | von Frey test mechanical threshold [2, 12]: 3.6 ± 0.2 g | von Frey test mechanical threshold [2, 13]: 4.9 ± 0.2 g | von Frey test mechanical threshold [2, 14]: 4.2 ± 0.1 g | von Frey test mechanical threshold [2, 15]: 4.0±0.1 g and 4.0 ± 0.1 ##− g | von Frey test mechanical threshold [2, 16]: 3.9 ± 0.2 g | von Frey test mechanical threshold [2, 17]: 4.0 ± 0.1 g | von Frey test mechanical threshold [2, 18]: 4.9 ± 0.1 g | von Frey test mechanical threshold [2, 19]: 3.9 ± 0.2 g | von Frey test mechanical threshold [2, 20]: 5.4 ± 0.1 g | von Frey test mechanical threshold [2, 21]: 5.3 ± 0.1 g | von Frey test mechanical threshold [2, 22]: 5.2 ± 0.1 g | Hot plate test thermal threshold [3, 8]: 22.8 ± 1.2 s | Hot plate test thermal threshold [3, 9]: 14.3 ± 1.0 s | Hot plate test thermal threshold [3, 10]: 14.0 ± 1.4 s | Hot plate test thermal threshold [3, 11]: 13.3 ± 1.3 s | Hot plate test thermal threshold [3, 12]: 13.1 ± 0.6 s | Hot plate test thermal threshold [3, 13]: 21.0 ± 1.3 s | Hot plate test thermal threshold [3, 14]: 14.6 ± 1.4 s | Hot plate test thermal threshold [3, 15]: 15.4 ± 0.8 s | Hot plate test thermal threshold [3, 16]: 15.1 ± 1.1 s | Hot plate test thermal threshold [3, 17]: 15.1 ± 1.3 s | Hot plate test thermal threshold [3, 18]: 21.3 ± 0.4 s | Hot plate test thermal threshold [3, 19]: 15.0 ± 0.7 s | Hot plate test thermal threshold [3, 20]: 18.0 ± 1.2 s | Hot plate test thermal threshold [3, 21]: 18.4 ± 1.3 s | Hot plate test thermal threshold [3, 22]: 18.2 ± 1.1 s | Hind plantar blood flow [4, 8]: 199.8±9.8 PU | Hind plantar blood flow [4, 9]: 150.7±9.4 PU | Hind plantar blood flow [4, 10]: 152.9±8.7 PU | Hind plantar blood flow [4, 11]: 141.0±8.7 PU | Hind plantar blood flow [4, 12]: 132.3±6.6 PU | Hind plantar blood flow [4, 13]: 210.7±14.1 PU | Hind plantar blood flow [4, 14]: 154.8±12.8 PU | Hind plantar blood flow [4, 15]: 169.3±7.9 PU | Hind plantar blood flow [4, 16]: 161.3±11.8 PU | Hind plantar blood flow [4, 17]: 162.1±9.8 PU | Hind plantar blood flow [4, 18]: 201.4±6.8 PU | Hind plantar blood flow [4, 19]: 142.7±7.1 PU | Hind plantar blood flow [4, 20]: 185.0±8.4 PU | Hind plantar blood flow [4, 21]: 234.7±11.2 PU | Hind plantar blood flow [4, 22]: 214.9±12.2 PU | TNF-α (TNF-α): 15.22±2.51 pg/mg protein | IL-1β (IL-1β): 24.90±4.05 pg/mg protein | Blood glucose levels compared to the DN group [5]: No significant changes | Urinary albumin [6]: 0.3 ± 0.1 mg/h/kg | Serum creatinine [7]: 0.4 ± 0.1 mg/dL
